Results: US9375416B2, “Epigallocatechin gallate tetramer and vascular endothelial function improving agent containing the same” (SUNTORY HOLDING LIMITED, priority 2008, dated 2016)

Key:
Type in all cases: cell-based
Conditions in all cases: human umbilical vascular endothelial cells, 10 μM, 8 hours, untreated cells as control
eNOS gene = eNOS gene expression in cultured vascular endothelial cells (quantitative PCR)
Text: (§1) With respect to the compounds of Formula (II) and Formula (III) synthesized and purified in Example 1, the effect of them on expression of a gene involved in the vascular endothelial function was studied. Furthermore, as compounds for comparison, an EGCG monomer (manufactured by Wako Pure Chemical Industries Ltd.), theaflavin, theaflavin 3-O-gallate, theaflavin 3′-O-gallate and theaflavin 3,3′-O-digallate (manufactured by Nagara Science Co., Ltd.), which are known to have a vascular endothelial function improving action.
(§2) These compounds were dissolved in sterilized dimethyl sulfoxide (DMSO, manufactured by Nacalai Tesque Inc.) to prepare a solution having a concentration of 10 mM.
(§3) These solutions were diluted 1000 fold by using HuMedia-EG2 medium (manufactured by Kurabo Industries Ltd.) to prepare a solution having a final concentration of 10 μM (the final concentration of DMSO was 0.1 V/V %). These sample solutions each were added to human umbilical vascular endothelial cells (manufactured by Kurabo Industries Ltd.) cultured in a 6-well plate in a proportion of 3 mL/well and incubated at 37° C. under 5% CO2 conditions for 8 hours.
(§4) The cells were recovered by ISOGEN (manufactured by Nippon Gene Co., Ltd.) and RNA was extracted from the cells. Furthermore, RNA was purified by RNeasy Mini Kit (QIAGEN). cDNA was synthesized by a High-Capacity cDNA reverse transcription kit (manufactured by Applied Biosystem) using the total RNA (200 ng) purified as a template and quantitative PCR was performed. Analysis was performed by comparative Ct method with a glyceraldehyde-3-phosphate dehydrogenase gene used as an internal standard. The gene expression change ratio (ratio relative to the control) of a test sample was calculated by using untreated cells as a control.

GTP-CH1 gene = GTP-CH1 gene expression in cultured vascular endothelial cells (quantitative PCR)
Text: as §1, §2, §3, §4

DDAH2 gene = DDAH2 gene expression in cultured vascular endothelial cells (quantitative PCR)
Text: as §1, §2, §3, §4

[1] = tested on: Nox4 subunit gene of NADPH oxidase; assay: Expression of Nox4 subunit gene of NADPH oxidase in cultured vascular endothelial cells (quantitative PCR)
Text: as §1, §2, §3, §4

O=C(OC1Cc2c(O)cc(O)c(Cc3c(O)cc(O)c4c3OC(c3cc(O)c(O)c(O)c3)C(OC(=O)c3cc(O)c(O)c(O)c3)C4)c2OC1c1cc(O)c(O)c(O)c1)c1cc(O)c(O)c(O)c1 (centres unmarked) [oolong homobisflavan-A, oolong homobisflavan A]
do not substantially change: expression of the eNOS gene (gene expression change ratio relative to the control) (eNOS gene) | expression of the GTP-CH1 gene (gene expression change ratio relative to the control) (GTP-CH1 gene) | expression of the DDAH2 gene (gene expression change ratio relative to the control) (DDAH2 gene) | expression of Nox4 subunit gene of NADPH oxidase (gene expression change ratio relative to the control) [1]

O=C(OC1Cc2c(cc(O)c(Cc3c(O)cc(O)c4c3OC(c3cc(O)c(O)c(O)c3)C(OC(=O)c3cc(O)c(O)c(O)c3)C4)c2O)OC1c1cc(O)c(O)c(O)c1)c1cc(O)c(O)c(O)c1 (centres unmarked) [oolong homobisflavan-B]
do not substantially change: expression of the eNOS gene (gene expression change ratio relative to the control) (eNOS gene) | expression of the GTP-CH1 gene (gene expression change ratio relative to the control) (GTP-CH1 gene) | expression of the DDAH2 gene (gene expression change ratio relative to the control) (DDAH2 gene) | expression of Nox4 subunit gene of NADPH oxidase (gene expression change ratio relative to the control) [1]

O=C(O[C@@H]1Cc2c(cc(O)c(Cc3c(O)cc4c(c3O)C[C@@H](OC(=O)c3cc(O)c(O)c(O)c3)[C@@H](c3cc(O)c(O)c(O)c3)O4)c2O)O[C@@H]1c1cc(O)c(O)c(O)c1)c1cc(O)c(O)c(O)c1 [oolong homobisflavan-C]
do not substantially change: expression of the eNOS gene (gene expression change ratio relative to the control) (eNOS gene) | expression of the GTP-CH1 gene (gene expression change ratio relative to the control) (GTP-CH1 gene) | expression of the DDAH2 gene (gene expression change ratio relative to the control) (DDAH2 gene) | expression of Nox4 subunit gene of NADPH oxidase (gene expression change ratio relative to the control) [1]

O=C(O[C@@H]1Cc2c(O)cc(O)cc2O[C@@H]1c1cc(O)c(O)c(O)c1-c1c([C@H]2Oc3cc(O)cc(O)c3C[C@H]2OC(=O)c2cc(O)c(O)c(O)c2)cc(O)c(O)c1O)c1cc(O)c(O)c(O)c1 [theasinensin A]
do not substantially change: expression of the eNOS gene (gene expression change ratio relative to the control) (eNOS gene) | expression of the GTP-CH1 gene (gene expression change ratio relative to the control) (GTP-CH1 gene) | expression of the DDAH2 gene (gene expression change ratio relative to the control) (DDAH2 gene) | expression of Nox4 subunit gene of NADPH oxidase (gene expression change ratio relative to the control) [1]

(−)-epigallocatechin-3-O-gallate [EGCG monomer]
do not substantially change: expression of the eNOS gene (gene expression change ratio relative to the control) (eNOS gene) | expression of the GTP-CH1 gene (gene expression change ratio relative to the control) (GTP-CH1 gene) | expression of the DDAH2 gene (gene expression change ratio relative to the control) (DDAH2 gene) | expression of Nox4 subunit gene of NADPH oxidase (gene expression change ratio relative to the control) [1]
